Activity calls are given as the source filed them. The rule behind the calls is not given here.
Key:
PBMC [1] = experiment: Immunostimulatory activity in human PBMC assessed as reduction in cell proliferation at 100 uM after 48 hrs by [3H]thymidine incorporation assay relative to control; format: functional, cell-based
PBMC [2] = experiment: Cytotoxicity in human PBMC cells at 100 uM after 48 hrs; format: cell-based
PBMC [3] = experiment: Immunostimulatory activity in human PBMC assessed as cell activation at 10 uM after 48 hrs by [3H]thymidine incorporation assay relative to control; format: functional, cell-based

Row | Structure (SMILES) | Activity (PBMC [1]) | Activity (PBMC [2]) | Activity (PBMC [3])
1 | CCCCCCCC[C@@H](O)[C@H](O)/C=C/C(O)CCCCC(=O)O (relative stereo) | inactive | Toxic | –
2 | CCCCCCCC[C@H](O)[C@H](O)/C=C/C(O)CCCCC(=O)O (relative stereo) | inactive | Toxic | Active
3 | CCCCCCCC[C@H](O)[C@@H](O)[C@H](O)/C=C\CCCCC(=O)O (relative stereo) | inactive | Toxic | –
4 | CC/C=C\C/C=C\[C@@H](O)[C@H](O)[C@@H](O)CCCCCCCC(=O)O (relative stereo) | inactive | Toxic | –

Reference: ChEMBL document CHEMBL1151993, “Oxylipins from Dracontium loretense” (J Nat Prod, 2009)
